The test system of assay [1] is Jurkat human acute T cell leukemia cells. Put plainly: Jurkat IL-2 release assay. The note with it: IL-2 release from Jurkat cells stimulated with anti-CD3 and anti-CD28, 48 hours, ELISA. It is filed as cell-based. In a few lines:
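Jurkat cells were pre-treated with compound curves 30 min at 37°C, then stimulated on plate-bound anti-CD3 (coated at 10 μg/mL) plus 1 μg/mL soluble anti-CD28 for 48 h. IL-2 in supernatant quantified by ELISA; EC50 from dose-response against vehicle-treated controls.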
In general terms: In an ELISA, binding on a coated surface is turned into a signal by an enzyme label.

The target of a further assay is ITK (Homo sapiens (Human), UniProt Q08881). Put plainly: ITK kinase inhibition assay. It counts as biochemical. The following applies: micro-fluidic detection, 3 hours at 25° C. As to the method: (§1) The in vitro kinase assays were performed at Nanosyn utilizing micro-fluidic detection technology. The test compounds were serially pre-diluted in DMSO and added, by the acoustic dispensing (Labcyte® 550), directly to 384 well assay plates into 10 uL of a buffer with enzyme comprising: 100 mM HEPES, pH7.5, 5 mM MgCl2, 0.1% bovine serum albumin, 1 mM DTT, 0.01% Triton X-100 and the enzyme. Final DMSO concentration was maintained at 1% in all samples, including the controls. The reactions were initiated by addition of ATP (to the specified concentration) and the fluorescently labeled peptide substrate to a final concentration of 1 uM, and incubated for 3 hours at 25° C. Following incubation, the reactions were quenched by addition of 40 μL of termination buffer (100 mM HEPES, pH7.5, 0.01% Triton X-100, 50 mM EDTA). Terminated plates were analyzed using Caliper LabChip® 3000 microfluidic electrophoresis instrument (Caliper Life Sciences/Perkin Elmer). The enzymatic modification of the peptide substrate (phosphorylation) results in a change of net charge enabling electrophoretic separation of product from substrate. As substrate and product are separated by electrophoresis, two peaks of fluorescence are observed. Change in the relative fluorescence intensity of the substrate and product peaks was the parameter measured, reflecting enzyme activity. In the presence of inhibitor, the ratio between product and substrate is altered: signal of the product decreases, while the signal of the substrate increases. Activity in each test sample was determined as the product to sum ratio (PSR):P/(S+P), where P is the peak height of the product and S is the peak height of the FAM-cAMP substrate. For each compound, enzyme activity was measured at 12 concentrations spaced by 3× dilution intervals. Negative control samples (0%-inhibition in the absence of inhibitor, DMSO only) and positive control samples (100%-inhibition, in the absence of enzyme or in the presence of control inhibitor) were assembled in replicates of four and were used to calculate %-inhibition values in the presence of compounds. Percent inhibition (Pinh) was determined using the following equation: Pinh=(PSR0%−PSRinh)/(PSR0%−PSR100%)*100, where PSRinh is the product sum ratio in the presence of inhibitor, PSR0% is the product sum ratio in the absence of inhibitor and PSR100% is the product sum ratio in 100%-inhibition control samples. To determine IC50 values, the inhibition curves (Pinh versus inhibitor concentration) were fitted by 4 parameter sigmoid dose-response model using XLfit software (IDBS).

A further assay deals with Tec kinase (Homo sapiens (Human), UniProt P42680). Briefly: Tec kinase inhibition assay. It is filed as biochemical. The following applies: micro-fluidic detection, 3 hours at 25° C. On the procedure: as §1, with “384well” for “384 well”, “(PSR): […],” for “(PSR):P/(S+P),”

Results on five compounds are retold here after patent publication US10562893B2, “Benzimidazoles derivatives as Tec kinases family inhibitors” (GB005, Inc., priority 2015, dated 2020).

Usually EC50 stands for the midpoint of the concentration-response curve. A high value points to lower potency in that assay.

Tec kinase, sequence (P42680 whole entry): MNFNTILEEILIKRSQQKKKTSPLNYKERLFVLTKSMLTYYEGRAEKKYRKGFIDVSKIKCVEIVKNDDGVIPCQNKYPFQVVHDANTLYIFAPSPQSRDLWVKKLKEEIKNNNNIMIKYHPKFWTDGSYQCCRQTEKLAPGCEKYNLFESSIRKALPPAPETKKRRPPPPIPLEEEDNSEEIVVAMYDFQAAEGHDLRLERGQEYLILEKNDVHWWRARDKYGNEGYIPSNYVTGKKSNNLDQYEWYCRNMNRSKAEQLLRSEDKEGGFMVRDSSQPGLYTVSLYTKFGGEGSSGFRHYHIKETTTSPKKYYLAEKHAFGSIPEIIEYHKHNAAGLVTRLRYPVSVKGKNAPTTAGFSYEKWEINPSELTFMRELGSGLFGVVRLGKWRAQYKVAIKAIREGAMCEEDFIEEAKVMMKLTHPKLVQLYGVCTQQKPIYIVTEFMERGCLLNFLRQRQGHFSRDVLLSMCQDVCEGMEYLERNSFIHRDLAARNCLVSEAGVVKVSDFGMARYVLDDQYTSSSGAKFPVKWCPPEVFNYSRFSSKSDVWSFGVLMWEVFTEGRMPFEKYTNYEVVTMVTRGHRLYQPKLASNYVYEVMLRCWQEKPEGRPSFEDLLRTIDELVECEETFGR
ITK, sequence (Q08881 whole entry): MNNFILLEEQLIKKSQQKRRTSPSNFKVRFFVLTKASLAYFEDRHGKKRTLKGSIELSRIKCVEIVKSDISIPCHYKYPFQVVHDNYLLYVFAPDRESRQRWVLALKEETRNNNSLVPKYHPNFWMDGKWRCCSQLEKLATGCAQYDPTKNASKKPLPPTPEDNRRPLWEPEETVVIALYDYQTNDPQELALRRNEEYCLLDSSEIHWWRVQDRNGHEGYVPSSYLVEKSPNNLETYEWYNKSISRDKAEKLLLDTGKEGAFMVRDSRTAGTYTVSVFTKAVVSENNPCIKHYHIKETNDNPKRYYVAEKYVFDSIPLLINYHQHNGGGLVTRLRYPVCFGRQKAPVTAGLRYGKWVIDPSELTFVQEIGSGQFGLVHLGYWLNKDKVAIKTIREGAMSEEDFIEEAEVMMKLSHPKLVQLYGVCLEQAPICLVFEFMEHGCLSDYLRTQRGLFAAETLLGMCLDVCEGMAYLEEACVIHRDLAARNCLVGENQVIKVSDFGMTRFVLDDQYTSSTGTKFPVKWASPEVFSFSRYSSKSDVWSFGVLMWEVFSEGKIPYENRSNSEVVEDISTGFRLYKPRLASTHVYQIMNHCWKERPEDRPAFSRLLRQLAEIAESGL

As for `C=CC(=O)Nc1cccc(-n2c(NC(=O)c3ccnn3C)nc3cc(CN[C@@H](C)C(C)(C)C)ccc32)c1` [Compound 28], the EC50 in assay [1] is < 10 nM; at ITK it was < 10 nM; on Tec kinase, 10 to 100 nM.
For `C=CC(=O)Nc1cccc(-n2c(NC(=O)c3ccc(C(F)F)s3)nc3cc(CN[C@@H](C)C(C)(C)C)ccc32)c1` [Compound 2], the EC50 is < 10 nM in assay [1], < 10 nM on ITK and 10 to 100 nM at Tec kinase.
Turning to `C=CC(=O)Nc1cccc(-n2c(NC(=O)c3ccno3)nc3cc(CN[C@@H](C)C(C)(C)C)ccc32)c1` [Compound 38], the results for the EC50 (in assay [1]; at ITK; on Tec kinase) were < 10 nM, < 10 nM and 10 to 100 nM, respectively.
In the case of `C=CC(=O)Nc1cccc(-n2c(NC(=O)c3ccc(-c4cnco4)s3)nc3cc(CN[C@@H](C)C(C)(C)C)ccc32)c1` [Compound 25], the EC50 (in assay [1]; on ITK; at Tec kinase) was < 10 nM in each case.
For the compound `C=CC(=O)Nc1cccc(-n2c(NC(=O)c3cccc(C#N)c3)nc3cc(CN[C@@H](C)C(C)(C)C)ccc32)c1` [Compound 9], the EC50 was 10 to 100 nM in assay [1], < 10 nM on ITK and 10 to 100 nM on Tec kinase.
